Experiment [1] has as its target Cathepsin K (Oryctolagus cuniculus, UniProt P43236). Description: Inhibitory concentration against humanized rabbit cathepsin K.
The target of another experiment is Procathepsin L (Homo sapiens, UniProt P07711). As to the kind of experiment: Inhibitory concentration against human cathepsin L.
Experiment [2] is described as follows: Compound was evaluated for its increased potency in bone resorption assay. The format is functional.
Another experiment addresses Cathepsin B (Homo sapiens, UniProt P07858). As to the kind of experiment: Inhibitory concentration against human cathepsin B.
The target of another experiment is Cathepsin S (Homo sapiens, UniProt P25774). Description: Inhibitory concentration against human cathepsin S.
For experiment [3], the target named is T1, Cathepsin K (Homo sapiens, UniProt P43235).
T1 sequence (P43235 whole entry): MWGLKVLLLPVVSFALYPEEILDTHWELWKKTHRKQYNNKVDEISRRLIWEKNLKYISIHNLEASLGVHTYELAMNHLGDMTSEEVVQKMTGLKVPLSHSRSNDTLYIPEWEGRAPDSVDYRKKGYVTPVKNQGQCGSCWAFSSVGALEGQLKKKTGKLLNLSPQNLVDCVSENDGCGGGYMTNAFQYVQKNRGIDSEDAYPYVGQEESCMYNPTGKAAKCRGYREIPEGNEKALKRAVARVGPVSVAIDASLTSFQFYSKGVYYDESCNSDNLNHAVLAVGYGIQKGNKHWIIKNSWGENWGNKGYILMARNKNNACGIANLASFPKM
Description: Inhibitory concentration against human cathepsin K.

What is called IC50 is the concentration needed to halve the response being measured.

Sequence of Cathepsin S (P25774 whole entry): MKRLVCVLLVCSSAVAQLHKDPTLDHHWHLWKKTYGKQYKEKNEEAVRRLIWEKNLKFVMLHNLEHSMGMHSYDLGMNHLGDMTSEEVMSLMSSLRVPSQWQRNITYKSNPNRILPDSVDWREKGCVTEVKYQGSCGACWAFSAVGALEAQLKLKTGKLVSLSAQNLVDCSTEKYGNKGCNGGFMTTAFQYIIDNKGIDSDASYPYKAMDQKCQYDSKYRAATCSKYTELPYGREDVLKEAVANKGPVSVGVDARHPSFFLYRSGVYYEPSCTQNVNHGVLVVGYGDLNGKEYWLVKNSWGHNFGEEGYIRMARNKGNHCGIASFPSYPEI
Sequence of Procathepsin L (P07711 whole entry): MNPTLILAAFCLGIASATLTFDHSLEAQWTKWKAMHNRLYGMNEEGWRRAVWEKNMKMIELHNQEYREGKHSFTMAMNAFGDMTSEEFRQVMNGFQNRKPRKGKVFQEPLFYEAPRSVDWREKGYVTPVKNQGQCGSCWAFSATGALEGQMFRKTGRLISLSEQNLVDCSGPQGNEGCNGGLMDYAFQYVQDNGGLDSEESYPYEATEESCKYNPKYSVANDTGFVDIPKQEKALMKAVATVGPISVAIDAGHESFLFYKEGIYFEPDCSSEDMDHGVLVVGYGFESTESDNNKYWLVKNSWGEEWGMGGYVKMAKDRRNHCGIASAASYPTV

On Cathepsin K [1], `CC(C)CC(Nc1cccc(Br)c1)C(=O)NCC#N` (stereo not given) had a 50% inhibitory concentration (IC50) of 72 nM.

Consider `CC(C)CC(Sc1ccccc1Br)C(=O)NCC#N` (stereo not given), for which, at Cathepsin K [1], 433 nM corresponded to half-maximal inhibition (IC50).

Consider `CC(C)CC(Sc1ccc(Br)cc1)C(=O)NCC#N` (stereo not given), for which the IC50 at Cathepsin K [1] worked out at 675 nM.

As for `CC(C)CC(Sc1cccc(Br)c1)C(=O)NCC#N` (stereo not given), on Cathepsin K [1], the half-maximal inhibitory concentration (IC50) is 684 nM.

On to `CC(C)CC(Oc1cccc(Br)c1)C(=O)NCC#N` (stereo not given), for which, at Cathepsin K [1], inhibition was half-maximal at 1470 nM (IC50).

As for `CC(C)CC(Oc1ccccc1Br)C(=O)NCC#N` (stereo not given), the 50% inhibitory concentration (IC50) against Cathepsin K [1] came out at 1150 nM.

Consider `CC(C)CC(Cc1ccccc1Br)C(=O)NCC#N` (stereo not given), for which the IC50 against Cathepsin K [1] is 2350 nM.

For `CC(C)C[C@H](Nc1cccc(-c2ccc(N3CCNCC3)cc2)c1)C(=O)NCC#N`, the half-maximal inhibitory concentration (IC50) was found to be 108 nM against Procathepsin L, 2 nM against Cathepsin K [1], 93 nM at Cathepsin B and 24 nM at Cathepsin S. The same compound registered an Activity in experiment [2] of 61 nM.

On Cathepsin K [1], `CC(C)CC(Oc1ccc(Br)cc1)C(=O)NCC#N` (stereo not given) had a 50% inhibitory concentration (IC50) of 3000 nM.

In the case of `CC(C)CC(Nc1ccccc1Br)C(=O)NCC#N` (stereo not given), the IC50 at Cathepsin K [1] came out at 54 nM.

On Cathepsin K [1], `CC(C)CC(Cc1cccc(Br)c1)C(=O)NCC#N` (stereo not given) registered a half-maximal inhibitory concentration (IC50) of 3390 nM.

Regarding `CC(C)CC(Cc1ccc(Br)cc1)C(=O)NCC#N` (stereo not given), the IC50 against Cathepsin K [1] was determined as 2390 nM.

Regarding `CC(C)C[C@H](Nc1cscc1-c1ccc(N2CCNCC2)cc1)C(=O)NCC#N`, the IC50 worked out at 352 nM against Procathepsin L; 1 nM at Cathepsin K [1]; 0.2 nM at Cathepsin K [3]; 123 nM on Cathepsin B; 102 nM against Cathepsin S. This compound also gave an Activity in experiment [2] of 10 nM.

For the compound `CC(C)C[C@H](Nc1ccc(-c2ccc(N3CCNCC3)cc2)cc1)C(=O)NCC#N`, the concentration for half-maximal inhibition (IC50) is 115 nM at Procathepsin L, 27 nM against Cathepsin K [1], 26 nM against Cathepsin B and 34 nM against Cathepsin S. The Activity in experiment [2] stood at 37 nM.

In the case of `CC(C)C[C@H](Nc1ccccc1-c1ccc(N2CCNCC2)cc1)C(=O)NCC#N`, the IC50 at Procathepsin L was found to be 2100 nM; against Cathepsin K [1], 3 nM; against Cathepsin B, 1810 nM; against Cathepsin S it was 158 nM. Also, the Activity in experiment [2] turned out to be 9 nM.

Turning to `CC(C)C[C@H](Nc1cscc1Br)C(=O)NCC#N`, the IC50 at Procathepsin L turned out to be 458 nM; against Cathepsin K [1] it was 43 nM; at Cathepsin B, 158 nM; at Cathepsin S, 897 nM. In experiment [2], this compound came in with an Activity of 71 nM.

For `CC(C)C[C@@H](C(=O)NCC#N)c1cccc(-c2ccc(N3CCNCC3)cc2)c1`, the concentration for half-maximal inhibition (IC50) at Cathepsin K [1] worked out at 11 nM. Also, the Activity in experiment [2] was found to be 95 nM.

On Cathepsin K [1], `CC(C)CC(Nc1ccc(Br)cc1)C(=O)NCC#N` (stereo not given) came in with an IC50 of 208 nM.

The record behind these values is ChEMBL document CHEMBL1137165, “Rational design of potent and selective NH-linked aryl/heteroaryl cathepsin K inhibitors” (Bioorg Med Chem Lett, 2004).
